# Experiments:
# [1] = tested on: human colonoids; assay: Cytokine treatment of human colonoids, RNA-seq; format: cell-based; settings: human colonoids, 24 hours
# Experimental: All patients provided informed consent (NRES/IRAS id:15/LO/1998). Subsequent establishment of human colonoids was performed as previously described by Sato et al (48). The crypts were cultured in growth medium containing advanced Dulbecco's modified Eagle's medium/F12, penicillin/streptomycin (100 units/mL), 10 mM HEPES, 2 mM Glutamax, supplements N2 (1×) and B27 (1×), 50 ng/mL mouse epidermal growth factor (all from Life Technologies; Carlsbad, Calif.), 1 mM N-acetylcysteine (Sigma-Aldrich; St. Louis, Mo.), 50% v/v Wnt3a conditioned medium, 10% v/v R-spondin-1 conditioned medium, 100 ng/mL murine recombinant noggin protein (Peprotech; Rocky Hill, N.J.), 10 nM gastrin (Sigma-Aldrich), 500 nM A83-01 (Bio-techne; Minneapolis, Minn.), 10 μM SB202190 (Sigma-Aldrich) and 10 mM Nicotinamide (Sigma-Aldrich). 10 μM Y-27632 (Sigma-Aldrich) was added to the culture medium for the initial 3 days. Medium was changed every 2 days. […] During the last 24 hours in differentiation medium, human colonoids were treated with human recombinant IL22 (10 ng/mL), IL17A (50 ng/mL), TNFα (10 ng/mL), IFNγ (20 ng/mL), IL13 (10 ng/mL) and IL22 (10 ng/mL)/IL17A (50 ng/mL) combination.
# (§1) RNA extraction: Colonoids and LPMC were treated in a similar fashion. Cells were lysed and RNA was extracted using the RNAeasy kit (Qiagen; Hilden, Germany). This step was optimized balancing the effectiveness of elimination of DNA quantified (Qubit dsDNA HS assay kit) versus the loss of quantity of RNA (Qubit RNA BR assay kit). Optimal DNAse I concentration was determined to be ×5 the standard concentration. 500 ng of cDNA was then created using Revertaid cDNA synthesis kit (ThermoFisher) and diluted to a concentration of 6.25 ng/μl. Harvested colonoids were put in Qiazol and then RNA was extracted with the RNAeasy kit (Qiagen) as per manufacturer's guidelines. cDNA was created using the Revertaid cDNA synthesis kit (ThermoFisher).
# Library preparation and sequencing: A total amount of 3 μg RNA per sample was used as input material for the RNA sample preparations. Sequencing libraries were generated using NEBNextR Ultra™ RNA Library Prep Kit for IlluminaR (NEB, Ipswich, Mass.) following manufacturer's recommendations and index codes were added to attribute sequences to each sample. Briefly, mRNA was purified from total RNA using poly-T oligo-attached magnetic beads. Fragmentation was carried out using divalent cations under elevated temperature in NEBNext First Strand Synthesis Reaction Buffer (5×). First strand cDNA was synthesized using random hexamer primer and M-MuLV Reverse Transcriptase (RNase H-). Second strand cDNA synthesis was subsequently performed using DNA Polymerase I and RNase H. Remaining overhangs were converted into blunt ends via exonuclease/polymerase activities. After adenylation of 3′ ends of DNA fragments, NEBNext Adaptor with hairpin loop structure were ligated to prepare for hybridization. In order to select cDNA fragments of preferentially 150˜200 bp in length, the library fragments were purified with AMPure XP system (Beckman Coulter, Brea, Calif.). Then 3 μl USER Enzyme (NEB) was used with size-selected, adaptor-ligated cDNA at 37° C. for 15 minutes followed by 5 minutes at 95° C. before PCR. Then PCR was performed with Phusion High-Fidelity DNA polymerase, Universal PCR primers and Index (X) Primer. At last, PCR products were purified (AMPure XP system) and library quality was assessed on the Agilent Bioanalyzer 2100 system. The clustering of the index-coded samples was performed on a cBot Cluster Generation System using HiSeq PE Cluster Kit cBot-HS (Illumina; San Diego, Calif.) according to the manufacturer's instructions. After cluster generation, the paired-end libraries were sequenced on an Illumina HiSeq platform. […]
# [2] = tested on: lamina propria mononuclear cells (LPMC); assay: IL23 stimulation of LPMC from UC patients, RNA-seq; format: cell-based, human
# Experimental: Human LPMC isolation: Colonic mucosal biopsies were obtained from UC patients (n=5) with endoscopically active disease (Mayo endoscopic subscore ≥2). LPMCs were isolated using a non-digestion, ‘walk out’ method previously published (Di Marco Barros et al., 2016, Cell 167, 203-218). In brief, 9 mm×9 mm×1.5 mm Cellfoam matrices (Cytomatrix PTY Ltd; Victoria, Australia) were autoclaved and incubated in 100 μg/mL rat tail collagen I (BD Biosciences; San Jose, Calif.) in PBS for 30 min at 37° C. and washed twice in PBS. Biopsies were washed for 20 min in 5 mL wash medium (RPMI 1640 10% FCS, β-mercaptoethanol, penicillin (500U/ml), streptomycin ([…]), metronidazole (5 mg/ml), gentamicin ([…], Sigma-Aldrich) and amphotericin 12.5 mg/ml (Thermo Fisher Scientific; Waltham, Mass.)). One endoscopic biopsy was placed on top of each matrix, which was then inverted and pressure was applied to crush the biopsy into the matrix. The matrices were placed into a 24-well plate (1 per well) and covered with 2 mL RPMI 1640 (supplemented with 10% FCS, β-mercaptoethanol, penicillin (100 U/ml), streptomycin ([…]), metronidazole (1 mg/ml), gentamicin (20 mg/ml), amphotericin (2.5 mg/ml)) and IL-2 (100U/mL, Novartis Pharmaceutical UK; London, United Kingdom). Cells were harvested and residual biopsy and empty wells were washed with PBS 0.02 mM HEPES. The cell suspension was passed through a […] nylon cell strainer, centrifuged at 400 g for 5 minutes.
# After LPMC isolation, a cell count was performed using a hemochromocytometer and 200,000 cells were placed in each well of a 96 well round bottomed plate until the supply was exhausted. Complete media either with or without IL23 (10 ng/ml Biolegend; San Diego, Calif.) was added to each well to a total volume of 200 μl and incubated at 37° C. at 5% CO2 for 4 hours. Then cells from wells treated in the same condition were combined in a 1.5 ml RNAse free Eppendorf. The Eppendorfs were centrifuged at 1200 g for 5 minutes, the supernatant was removed and 800 μl Qiazol (Qiagen, Germany) added and mechanically homogenized using a needle and syringe.
# as §1
# Library preparation and sequencing: A total amount of 3 μg RNA per sample was used as input material for the RNA sample preparations. Sequencing libraries were generated using NEBNextR Ultra™ RNA Library Prep Kit for IlluminaR (NEB, Ipswich, Mass.) following manufacturer's recommendations and index codes were added to attribute sequences to each sample. Briefly, mRNA was purified from total RNA using poly-T oligo-attached magnetic beads. Fragmentation was carried out using divalent cations under elevated temperature in NEBNext First Strand Synthesis Reaction Buffer (5×). First strand cDNA was synthesized using random hexamer primer and M-MuLV Reverse Transcriptase (RNase H-). Second strand cDNA synthesis was subsequently performed using DNA Polymerase I and RNase H. Remaining overhangs were converted into blunt ends via exonuclease/polymerase activities. After adenylation of 3′ ends of DNA fragments, NEBNext Adaptor with hairpin loop structure were ligated to prepare for hybridization. […]
# [3] = tested on: patients with moderate-to-severe UC; assay: UNIFI phase 3 trial: ustekinumab induction in UC patients stratified by baseline IL22 enrichment score; format: in vivo, human; settings: week 8
# Text: Gene Set Variation Analysis: To test the activation of each of the cytokine regulated transcriptional programs we used gene set variation analysis (GSVA) (56) to probe whole transcriptional profiles of previously reposited datasets and the dataset generated in the context of the ustekinumab and golimumab trials programs.
# UNIFI trial programme: The UNIFI trial was a randomized placebo-controlled phase 3 clinical trial evaluating the efficacy and safety of ustekinumab (NCT02407236) and has already been reported (43). In this study, for the first time, transcriptional data from biopsies were reported, which were correlated to clinical, endoscopic and biomarker data available from the UNIFI cohort. Colonic biopsies were sampled at defined time points after institution of treatment in a subset of patients and were immediately transferred to RNALater (Qiagen) and stored at −80° C. prior to RNA extraction. Whole genome transcriptomics were performed on the Affymetrix HG U133 PM array. Clinical data was recorded prospectively according to the trial protocol. Outcomes reported include: clinical remission (defined as a total Mayo score of ≤2 and no subscore >1) and deep remission (which required both histologic improvement (defined as neutrophil infiltration in <5% of crypts, no crypt destruction, and no erosions, ulcerations, or granulation tissue) and endoscopic improvement) at week 8. Analysis presented is based on all patients receiving ustekinumab regardless of dose (130 mg and 6 mg/kg).
# Next, it was determined whether core transcripts regulated by the IL23/IL22 axis were differentially expressed in diseased tissue of UC patients. Gene Set Variation Analysis (GSVA) is an algorithm which tests whether entire transcriptional programmes are enriched in complex and heterogeneous samples. […] Endoscopically acquired colonic biopsies were sampled from the sigmoid colon of patients with moderate-to-severe UC (n=550) enrolled to the UNIFI phase III clinical trial, a randomized, placebo controlled trial evaluating the efficacy of ustekinumab, a monoclonal antibody (mAb) that blocks the p40 subunit shared by the human IL-12 and IL-23 cytokines. […] These findings were replicated in 2 additional independent cohorts of UC patients where transcriptomic data was available in publicly accessible repositories (GSE50971 and GSE16879, FIG. 4A). […] Consistent with IL23 being an important driver of IL22, there was a significant correlation between the enrichment scores for IL23 and IL22 in colonic biopsies.
# Although IL23 and IL22 responsive transcriptional programs were enriched at population level in UC patients, there was considerable variation in magnitude of enrichment. Since it was unlikely that this variation was being driven by differences in disease severity (all patients in the UNIFI trial program had moderate to severe UC, with Mayo endoscopy subscores of either 2 or 3), the possibility that this molecular heterogeneity might represent important differences in underlying disease immunobiology was considered. If molecular stratification of UC patients according to the magnitude of IL23/IL22 responsive transcript enrichment was biologically and/or clinically meaningful, it was reasoned that UC patients with different degrees of enrichment would experience different outcomes and follow different trajectories. To test this hypothesis, patients from the UNIFI trial program were stratified according to IL23 or IL22 enrichment scores (in colonic biopsies sampled immediately prior initiation with ustekinumab), and whether these differences in molecular phenotype impacted treatment response were evaluated. Enrichment scores in colonic tissue, for both cytokines, could differentiate responders and non-responders to ustekinumab induction therapy (including patients on 130 mg and 6 mg/kg dose), although, the IL22-responsive transcriptional program was especially discriminatory (FIGS. 3D-3F and FIGS. 5A-5D). […]
# [4] = patients with low IL22 enrichment scores (ES<0)
molecule,measurement,setting,value
IL13: human recombinant IL13 (10 ng/mL) used on human colonoids,regulation of chemokine expression,[1],strongly upregulate both eosinophil-active chemokines CCL24 and CCL26
"IL23: recombinant IL23 (10 ng/ml, Biolegend) used to stimulate LPMC",GZMB transcript fold change,"[2]; IL23 10 ng/ml, 4 hours",1.40
same,IFNG transcript fold change,"[2]; IL23 10 ng/ml, 4 hours",1.77
same,IL17A transcript fold change,"[2]; IL23 10 ng/ml, 4 hours",1.24
same,IL17F transcript fold change,"[2]; IL23 10 ng/ml, 4 hours",1.70
same,IL22 transcript fold change,"[2]; IL23 10 ng/ml, 4 hours",1.69
same,TNFRSF8 transcript fold change,"[2]; IL23 10 ng/ml, 4 hours",1.41
same,differentially expressed transcripts,[2]; filtered at P<0.01,222 transcripts
same,downregulated transcripts,[2]; filtered at P<0.01,110
same,upregulated transcripts,[2]; filtered at P<0.01,112
"ustekinumab: monoclonal antibody blocking the p40 subunit shared by IL-12 and IL-23; heavy chain SEQ ID NO:10, light chain SEQ ID NO:11",outcomes in UC patients with high IL22 enrichment scores,[3]; high IL22 enrichment scores,broadly comparable to placebo treated patients
same,clinical remission,[3]; [4],26.6%
same,"deep remission (clinical, endoscopic and histologic remission)",[3]; [4],22.7%
same,mucosal healing,[3]; [4],25.9%
same,"deep remission (clinical, endoscopic and histologic remission)",[3]; unstratified UC patients,11.7%
same,mucosal healing,[3]; unstratified UC patients,15.6%
same,clinical remission,"[3]; unstratified UC patients, ustekinumab induction 130 mg and 6 mg/kg pooled",13.4%
"IFNγ: human recombinant IFNγ (20 ng/mL) used on human colonoids (protein, UniProt P01579 24-161, looked up) Interferon gamma: QDPYVKEAENLKKYFNAGHSDVADNGTLFLGILKNWKEESDRKIMQSQIVSFYFKLFKNFKDDQSIQKSVETIKEDMNVKFFNSNKKKRDDFEKLTNYSVTDLNVQRKAIHELIQVMAELSPAAKTGKRKRSQMLFRG",regulation of chemokine expression,[1],strongly upregulated CXCL9 and CXCL10
